Activity calls are given as the source filed them. The calls are words filed in the database; no cut-off is given here.
Key:
[1] = Metabolic stability in mouse liver microsomes assessed as parent compound remaining at 1 uM after 10 mins in presence of NADPH; type: ADME, microsome; details: read-out: Stability
[2] = test system: Mus musculus; assay: Antiobesity activity in diet induced obese C57BL/6J mouse model assessed as decrease in total cholesterol level at 3 to 10 mg/kg, po administered as daily dose measured at day 26 post last dose; type: functional, organism-based
[3] = Drug uptake in plasma of diet-induced obese C57BL/6J mouse model at 10 mg/kg, po administered as daily dose measured at 2 hrs post last dose on day 1; type: ADME, organism-based
[4] = molecular target: Cannabinoid receptor 1 (Homo sapiens, UniProt P21554); assay: Inverse agonist activity at human CB1 receptor expressed in HEK293 cells assessed as inhibition of forskolin-induced cAMP accumulation after 30 mins by HTRF assay; type: functional, cell-based
Chain of Cannabinoid receptor 1 (P21554 whole entry): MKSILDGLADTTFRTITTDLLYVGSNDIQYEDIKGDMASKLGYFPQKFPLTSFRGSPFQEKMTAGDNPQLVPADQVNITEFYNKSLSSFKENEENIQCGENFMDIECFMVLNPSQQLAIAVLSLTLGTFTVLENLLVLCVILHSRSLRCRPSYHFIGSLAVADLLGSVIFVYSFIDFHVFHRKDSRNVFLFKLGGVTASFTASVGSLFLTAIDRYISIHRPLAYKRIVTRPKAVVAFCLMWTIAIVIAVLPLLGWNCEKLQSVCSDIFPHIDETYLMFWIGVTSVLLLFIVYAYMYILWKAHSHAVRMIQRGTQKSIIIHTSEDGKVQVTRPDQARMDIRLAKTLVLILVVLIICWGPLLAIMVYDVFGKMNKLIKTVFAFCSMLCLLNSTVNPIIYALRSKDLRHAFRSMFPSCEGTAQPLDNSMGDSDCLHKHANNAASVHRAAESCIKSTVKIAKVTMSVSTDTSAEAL

[5] = Ratio of drug level in C57BL/6J mouse brain to plasma at 20 mg/kg, po measured after 4 hrs; type: ADME, organism-based; details: read-out: BPR
[6] = Drug uptake in plasma of diet-induced obese C57BL/6J mouse model at 1 mg/kg, po administered as daily dose measured at 2 hrs post last dose on day 1; type: ADME, organism-based
[7] = molecular target: T1, Cytochrome P450 1A2 (Homo sapiens, UniProt P05177); assay: Inhibition of CYP1A2 in human liver microsomes using phenacetin as substrate after 10 to 30 mins by LC/MS analysis; type: ADME
T1 sequence (P05177 whole entry): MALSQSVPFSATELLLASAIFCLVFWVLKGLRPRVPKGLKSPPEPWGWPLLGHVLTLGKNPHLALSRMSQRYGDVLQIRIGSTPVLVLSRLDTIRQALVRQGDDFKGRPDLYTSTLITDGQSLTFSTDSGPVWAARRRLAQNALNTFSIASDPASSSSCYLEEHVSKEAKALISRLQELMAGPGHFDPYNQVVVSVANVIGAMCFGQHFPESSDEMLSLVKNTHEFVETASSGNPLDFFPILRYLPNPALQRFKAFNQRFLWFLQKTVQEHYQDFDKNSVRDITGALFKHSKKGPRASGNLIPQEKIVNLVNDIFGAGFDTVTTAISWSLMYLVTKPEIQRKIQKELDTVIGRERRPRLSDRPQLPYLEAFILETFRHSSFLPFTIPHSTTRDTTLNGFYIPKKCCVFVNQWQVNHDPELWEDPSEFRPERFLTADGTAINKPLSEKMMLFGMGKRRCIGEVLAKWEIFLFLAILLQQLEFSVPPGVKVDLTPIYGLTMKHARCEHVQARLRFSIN

[8] = test system: Mus musculus; assay: Antiobesity activity in diet induced obese C57BL/6J mouse model assessed as decrease in food intake at 3 mg/kg, po administered as daily dose measured every day for 5 days and continuing every other day till day 8 and 15; type: functional, organism-based
[9] = Half life in C57BL/6J mouse at 20 mg/kg, po administered via gavage by LC-MS/MS analysis; type: ADME, organism-based; details: in vivo
[10] = test system: Salmonella typhimurium; assay: Mutagenicity in Salmonella typhimurium by Ames test; type: toxicity, organism-based; details: salmonella enterica subsp. enterica serovar typhimurium
[11] = molecular target: Cytochrome P450 2C19 (Homo sapiens, UniProt P33261); assay: Inhibition of CYP2C19 in human liver microsomes using (S)-mephenytoin as substrate after 10 to 30 mins by LC/MS analysis; type: ADME
Chain of Cytochrome P450 2C19 (P33261 whole entry): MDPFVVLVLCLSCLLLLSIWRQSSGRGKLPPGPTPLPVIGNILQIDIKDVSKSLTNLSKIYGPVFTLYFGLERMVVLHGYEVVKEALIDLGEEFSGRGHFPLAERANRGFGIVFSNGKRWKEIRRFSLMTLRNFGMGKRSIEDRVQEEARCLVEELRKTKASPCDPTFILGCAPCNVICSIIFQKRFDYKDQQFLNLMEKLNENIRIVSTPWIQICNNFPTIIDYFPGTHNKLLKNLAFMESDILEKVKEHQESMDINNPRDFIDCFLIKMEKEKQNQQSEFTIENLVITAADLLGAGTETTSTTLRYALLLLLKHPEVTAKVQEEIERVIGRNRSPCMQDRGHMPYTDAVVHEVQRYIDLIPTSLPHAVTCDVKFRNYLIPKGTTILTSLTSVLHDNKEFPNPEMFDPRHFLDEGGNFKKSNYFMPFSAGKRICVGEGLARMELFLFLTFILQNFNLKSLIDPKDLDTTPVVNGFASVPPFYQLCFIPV

[12] = molecular target: Cytochrome P450 2C9 (Homo sapiens, UniProt P11712); assay: Inhibition of CYP2C9 in human liver microsomes using tolbutamide as substrate after 10 to 30 mins by LC/MS analysis; type: ADME
Chain of Cytochrome P450 2C9 (P11712 whole entry): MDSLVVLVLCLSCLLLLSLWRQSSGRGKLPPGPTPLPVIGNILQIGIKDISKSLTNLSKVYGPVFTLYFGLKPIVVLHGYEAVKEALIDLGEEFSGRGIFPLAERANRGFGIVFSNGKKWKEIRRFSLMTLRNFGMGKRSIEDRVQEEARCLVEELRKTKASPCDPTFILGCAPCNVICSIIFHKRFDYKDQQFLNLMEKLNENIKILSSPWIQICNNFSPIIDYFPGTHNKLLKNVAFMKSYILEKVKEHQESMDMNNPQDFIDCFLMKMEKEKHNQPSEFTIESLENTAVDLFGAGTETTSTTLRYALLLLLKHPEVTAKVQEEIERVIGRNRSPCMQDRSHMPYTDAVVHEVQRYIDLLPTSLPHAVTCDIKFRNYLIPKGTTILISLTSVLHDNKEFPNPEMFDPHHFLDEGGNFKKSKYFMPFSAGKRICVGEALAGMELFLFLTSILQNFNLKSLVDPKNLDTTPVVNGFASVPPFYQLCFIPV

[13] = Drug uptake in brain of diet-induced obese C57BL/6J mouse model at 10 mg/kg, po administered as daily dose measured at 2 hrs post last dose on day 23; type: ADME, organism-based; details: in vivo
[14] = Cmax in C57BL/6J mouse at 20 mg/kg, po administered via gavage by LC-MS/MS analysis; type: ADME, organism-based; parameters: dose 20 mg/kg, route oral; details: in vivo
[15] = Drug uptake in brain of diet-induced obese C57BL/6J mouse model at 1 mg/kg, po administered as daily dose measured at 2 hrs post last dose on day 23; type: ADME, organism-based; details: in vivo
[16] = Ratio of drug level in brain to plasma of diet-induced obese C57BL/6J mouse model at 1 mg/kg, po administered as daily dose measured at 2 hrs post last dose on day 23; type: ADME, organism-based; details: read-out: BPR
[17] = Drug uptake in brain of wild type CF-1 mouse at 20 mg/kg, po measured at 2 hrs post last dose on day 2; type: ADME, organism-based; details: in vivo
[18] = test system: Mus musculus; assay: Induction of insulin sensitivity in diet induced obese C57BL/6J mouse model at 3 to 10 mg/kg, po administered as daily dose measured at day 26 post last dose; type: functional, organism-based
[19] = Drug uptake in plasma of wild type CF-1 mouse at 20 mg/kg, po measured at 2 hrs post last dose on day 1; type: ADME, organism-based
[20] = Tmax in C57BL/6J mouse at 5 mg/kg, iv or 20 mg/kg, po administered via gavage by LC-MS/MS analysis; type: ADME, organism-based; details: in vivo
[21] = Drug uptake in brain of diet-induced obese C57BL/6J mouse model at 30 mg/kg administered as daily dose measured at 2 hrs post last dose on day 5; type: ADME, organism-based; details: in vivo
[22] = Protein binding in plasma (unknown origin); type: ADME, cell-free; details: unidentified, read-out: PPB
[23] = Drug uptake in brain of diet-induced obese C57BL/6J mouse model at 10 mg/kg, po administered as daily dose measured at 2 hrs post last dose on day 2; type: ADME, organism-based; details: in vivo
[24] = test system: Mus musculus; assay: In vivo receptor occupancy at CB1 receptor in brain of diet induced obese C57BL/6J mouse model at 30 mg/kg, po administered as daily dose for 5 days measured 10 mins post last dose in presence of [3H]-CP-55940 relative to control; type: functional

O=c1cc(NC2CCN(S(=O)(=O)C(F)(F)F)CC2)c2cc(C(c3ccc(Cl)cc3)c3ccc(Cl)cc3)ccc2[nH]1
remaining at 10 min, 1 µM [1]: 100% | Activity [2]: Active | concentration at 2 h [3]: 4.08 µM | EC50 [4]: 0.0082 to 0.0083 µM | Kp at 4 h [5]: 0.0099 | concentration at 2 h [6]: 0.508 µM | IC50 [7]: > 10 µM | Activity [8]: Active | half-life [9]: 7.26 h | Activity [10]: Non-Toxic | IC50 [11]: > 10 µM | IC50 [12]: > 10 µM | Drug uptake [13]: 0.329 nmol/g | Cmax [14]: 3.7 µM | Drug uptake [15]: 0.06 nmol/g | Kp at 2 h [16]: 0.072 | Drug uptake [17]: 0.104 nmol/g | Activity [18]: Active | concentration at 2 h [19]: 3.92 µM | Tmax [20]: 2 h | Drug uptake [21]: 0.357 nmol/g | fraction unbound [22]: 0.0001 | Drug uptake [23]: 0.102 nmol/g | Occ [24]: 71.6%
